According to patent US8648066B2 (Exelixis, Inc., priority 2009, dated 2014):

Columns and labels:
PI3Kα = PI3Kα (Homo sapiens, UniProt P42336); assay: PI3K biochemical assay (luciferase-luciferin ATP consumption); settings: 1.5 nM enzyme, 1 μM ATP, 10 μM PIP2; read-out: IC50 for PI3Kα in this assay
Description: PI3Kα activity is measured as the percent of ATP consumed following the kinase reaction using luciferase-luciferin-coupled chemiluminescence. Reactions were conducted in 384-well white, medium binding microtiter plates (Greiner). Kinase reactions were initiated by combining test compounds, ATP, substrate (PIP2), and kinase in a 20 μL volume in a buffer solution. The standard PI3Kalpha assay buffer is composed 50 mM Tris, pH 7.5, 1 mM EGTA, 10 mM MgCl2, 1 mM DTT and 0.03% CHAPS. The standard assay concentrations for enzyme, ATP, and substrate are 1.5 nM, 1 μM, and 10 μM, respectively. The reaction mixture was incubated at ambient temperature for approximately 2 h. Following the kinase reaction, a 10 μL aliquot of luciferase-luciferin mix (Promega Kinase-Glo) was added and the chemiluminescence signal measured using a Victor2 plate reader (Perkin Elmer). Total ATP consumption was limited to 40-60% and IC50 values of control compounds correlate well with literature references. Substituting PI3Kα with PI3Kβ, PI3Kγ, or PI3Kδ, the inhibitory activity of the compounds for the other isoforms of I3K were measured.

mTOR/GbL/Raptor (mTORC1) = mTOR/GbL/Raptor (mTORC1) (Homo sapiens, UniProt P42345); assay: mTOR/GbL/Raptor (mTORC1) ELISA assay; format: biochemical; settings: phosphorylation of 4E-BP1; 0.2 nM mTORC1, 10 μM ATP; read-out: IC50 in this assay (mTORC1 ELISA)
How it was run: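 Human mTORC1 (0.2 nM) phosphorylated 50 nM His-tagged 4E-BP1 with 10 µM ATP in HEPES pH 7.2 containing 10 mM MnCl2, 120 min at ambient temperature. Substrate was captured on Ni-chelate plates; phospho-4E-BP1 was detected by primary antibody and HRP secondary with luminescence.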

Chain of PI3Kα (P42336 whole entry, species assumed): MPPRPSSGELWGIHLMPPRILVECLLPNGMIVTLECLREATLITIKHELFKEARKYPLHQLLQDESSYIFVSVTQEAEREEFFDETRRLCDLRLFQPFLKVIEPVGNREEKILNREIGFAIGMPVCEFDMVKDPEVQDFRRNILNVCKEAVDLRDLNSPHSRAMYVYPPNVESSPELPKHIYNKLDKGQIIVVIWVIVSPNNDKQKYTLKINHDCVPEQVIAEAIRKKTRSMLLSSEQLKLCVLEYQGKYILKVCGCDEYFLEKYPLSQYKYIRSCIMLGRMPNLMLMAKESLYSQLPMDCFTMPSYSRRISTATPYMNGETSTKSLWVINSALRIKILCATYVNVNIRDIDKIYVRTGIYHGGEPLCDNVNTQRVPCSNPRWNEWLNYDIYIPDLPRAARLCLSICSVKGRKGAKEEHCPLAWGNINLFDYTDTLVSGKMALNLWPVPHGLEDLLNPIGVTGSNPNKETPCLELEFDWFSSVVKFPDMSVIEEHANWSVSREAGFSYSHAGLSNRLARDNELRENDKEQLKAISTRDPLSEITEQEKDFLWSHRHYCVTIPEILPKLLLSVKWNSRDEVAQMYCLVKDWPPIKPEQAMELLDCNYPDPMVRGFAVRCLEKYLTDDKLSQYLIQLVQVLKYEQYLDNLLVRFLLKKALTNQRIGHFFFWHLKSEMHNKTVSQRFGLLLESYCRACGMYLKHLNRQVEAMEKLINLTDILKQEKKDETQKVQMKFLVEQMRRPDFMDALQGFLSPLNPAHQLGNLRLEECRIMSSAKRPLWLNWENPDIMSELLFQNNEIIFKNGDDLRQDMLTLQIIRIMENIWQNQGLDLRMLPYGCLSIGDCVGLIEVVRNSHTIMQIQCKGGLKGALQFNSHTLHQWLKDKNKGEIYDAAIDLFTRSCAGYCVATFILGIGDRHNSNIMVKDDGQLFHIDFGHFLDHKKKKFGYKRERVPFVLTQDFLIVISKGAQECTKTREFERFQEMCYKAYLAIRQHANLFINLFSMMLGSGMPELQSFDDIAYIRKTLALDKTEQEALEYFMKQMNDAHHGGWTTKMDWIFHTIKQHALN
Chain of PI3Kα (P27986 whole entry partner, species assumed): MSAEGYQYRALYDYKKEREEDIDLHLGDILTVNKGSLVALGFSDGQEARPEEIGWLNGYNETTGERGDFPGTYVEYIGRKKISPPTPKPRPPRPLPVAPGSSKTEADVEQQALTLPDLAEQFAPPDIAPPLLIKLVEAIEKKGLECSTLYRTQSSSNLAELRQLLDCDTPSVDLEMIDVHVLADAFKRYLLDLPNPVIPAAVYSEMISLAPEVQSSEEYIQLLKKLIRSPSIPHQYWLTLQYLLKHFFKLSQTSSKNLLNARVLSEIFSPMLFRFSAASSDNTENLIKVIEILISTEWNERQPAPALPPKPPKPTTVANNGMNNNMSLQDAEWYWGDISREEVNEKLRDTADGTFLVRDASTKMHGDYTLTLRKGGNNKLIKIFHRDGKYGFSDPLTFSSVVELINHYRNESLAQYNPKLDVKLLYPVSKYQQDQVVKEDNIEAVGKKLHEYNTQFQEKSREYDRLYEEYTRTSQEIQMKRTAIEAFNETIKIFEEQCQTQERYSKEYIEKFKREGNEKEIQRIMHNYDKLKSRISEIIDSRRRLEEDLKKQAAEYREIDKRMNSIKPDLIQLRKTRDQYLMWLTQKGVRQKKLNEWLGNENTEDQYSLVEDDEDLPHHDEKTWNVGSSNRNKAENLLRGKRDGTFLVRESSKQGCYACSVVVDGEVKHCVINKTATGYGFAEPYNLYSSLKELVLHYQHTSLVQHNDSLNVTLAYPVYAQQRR

| Compound | IC50 (PI3Kα) | IC50 (mTOR/GbL/Raptor (mTORC1)) |
| --- | --- | --- |
| Cc1nc2ccc(-c3ccc4c(c3)CN(c3ccnc(N)c3)CCO4)cc2[nH]1 [Example 262, 4-[7-(2-methyl-1H-benzimidazol-6-yl)-2,3-dihydro-1,4-benzoxazepin-4(5H)-yl]pyridin-2-amine] | ≥ 2000 nM | ≥ 2000 nM |
| Cc1nc2ccc(-c3ccc4c(c3)CN(c3ncccn3)CCO4)cc2[nH]1 [Example 106, 7-(2-methyl-1H-benzimidazol-6-yl)-4-pyrimidin-2-yl-2,3,4,5-tetrahydro-1,4-benzoxazepine] | 1000 to 2000 nM | 1000 to 2000 nM |
| Cc1ncc(S(=O)(=O)N(C)C)c(N2CCOc3ccc(-c4cnc5nc(C)[nH]c5c4)cc3C2)n1 [Example 611, N,N,2-trimethyl-4-[7-(2-methyl-1H-imidazo[4,5-b]pyridin-6-yl)-2,3-dihydro-1,4-benzoxazepin-4(5H)-yl]pyrimidine-5-sulfonamide] | 1000 to 2000 nM | 250 to 1000 nM |
| COc1ccc2c(N3CCOc4ccc(-c5ccc6ncsc6c5)cc4C3)nc(C)nc2c1 [Example 294, 7-(1,3-benzothiazol-6-yl)-4-[2-methyl-7-(methyloxy)quinazolin-4-yl]-2,3,4,5-tetrahydro-1,4-benzoxazepine] | 1000 to 2000 nM | ≥ 2000 nM |
| c1ccc2c(N3CCOc4ccc(-c5ccc6nc(C7CCCC7)[nH]c6c5)cc4C3)ccnc2c1 [Example 198, 7-(2-cyclopentyl-1H-benzimidazol-6-yl)-4-quinolin-4-yl-2,3,4,5-tetrahydro-1,4-benzoxazepine] | ≥ 2000 nM | ≥ 2000 nM |
| COC(=O)Nc1cc(-c2ccc3c(c2)CN(c2ncnc4c2CC(C)(C)CC4)CCO3)cnc1Cl [Example 581, methyl {2-chloro-5-[4-(6,6-dimethyl-5,6,7,8-tetrahydroquinazolin-4-yl)-2,3,4,5-tetrahydro-1,4-benzoxazepin-7-yl]pyridin-3-yl}carbamate] | ≥ 2000 nM | 1000 to 2000 nM |
| CN(C)Cc1nc2c(c(N3CCOc4ccc(-c5cccc(C(N)=O)c5)cc4C3)n1)CC(C)(C)CC2 [Example 433, 3-(4-{2-[(dimethylamino)methyl]-6,6-dimethyl-5,6,7,8-tetrahydroquinazolin-4-yl}-2,3,4,5-tetrahydro-1,4-benzoxazepin-7-yl)benzamide] | 1000 to 2000 nM | ≥ 2000 nM |
